Some test systems named below: Cladosporium sp.; Aureobasidium pullulans; Saccharomyces cerevisiae; Bacillus subtilis PY79; Escherichia coli D31; Listeria grayi DSM 20601; Escherichia coli D22; Pediococcus acidilactici; Klebsiella pneumoniae; Aerococcus viridans; Fusarium haematococcum; Enterobacter cloacae; Alternaria brassicicola; Bacillus subtilis; Fusarium culmorum; Micrococcus luteus; Botrytis cinerea; Trichoderma viride; Neurospora crassa; Ascochyta pisi; Bacillus megaterium; Streptococcus agalactiae; Streptococcus pyogenes; Streptococcus mutans.

Holding throughout (experiment): ≥ marks a high value that may be exact or a test limit, other limits are often not marked, values filed in µg/mL are converted to µM
The subject of assay [1] is Candida albicans ATCC 10231.
Assay [2] concerns Escherichia coli ATCC 25922.
The subject of assay [3] is Pseudomonas aeruginosa ATCC 27853.
Assay [4] relates to Pseudomonas aeruginosa ATCC 15692.
The subject of assay [5] is Corynebacterium glutamicum ATCC 13032.
Assay [6] concerns Staphylococcus epidermidis ATCC 35984.
Assay [7] has as its system Bacillus subtilis ATCC 23857.
In assay [8] the test system is Staphylococcus aureus ATCC 9144.
Assay [9] relates to Escherichia coli MC4100 NR698.
Assay [10] concerns Staphylococcus epidermidis 5179-R1.
Assay [11] has as its system Staphylococcus aureus ATCC 6538P.
The subject of assay [12] is Escherichia coli DH5alpha.
Assay [13] relates to Pseudomonas aeruginosa PAO1.
Assay [14] concerns Klebsiella pneumoniae ATCC 700603.
The test system of assay [15] is Pseudomonas aeruginosa PA14.
In assay [16] the test system is Listeria monocytogenes DSM 20600.
Assay [17] relates to Listeria fleischmannii DSM 24998.
The test system of assay [18] is Micrococcus luteus DSM 20030.
Assay [19] concerns Pectobacterium carotovorum.
Assay [20] deals with Mycobacterium tuberculosis mc2-6020.
Assay [21] relates to Mycobacterium tuberculosis mc2-6230.
Assay [22] has as its system Streptococcus pneumoniae ATCC 49619.
Assay [23] deals with Staphylococcus aureus ATCC 25923.
Assay [24] deals with Pseudomonas aeruginosa 0108.
Assay [25] deals with Pseudomonas aeruginosa CGMCC 1.860.

Converted amounts (≈) assume the structure as drawn.

Broadly, the MIC is the smallest concentration in the dilution series that meets the test's criterion for growth inhibition. Read a low MIC as inhibition by little substance.

As for `CC[C@H](C)[C@H](NC(=O)[C@@H](N)CC(=O)O)C(=O)NCC(=O)N[C@@H](CCCCN)C(=O)N[C@@H](Cc1ccc(O)cc1)C(=O)N[C@@H](CS)C(=O)NCC(=O)N[C@@H](Cc1ccc(O)cc1)C(=O)N[C@@H](C)C(=O)N[C@@H](Cc1cnc[nH]1)C(=O)N[C@@H](C)C(=O)N[C@@H](CC(C)C)C(=O)N[C@@H](CC(N)=O)C(N)=O` [DIGKYCGYAHALN], the MIC in assay [1] is greater than 100 µM; in [2] it was greater than 100 µM; in the assay with Cladosporium sp. it was no less than 100 µM; in assay [3] it was greater than 100 µM; with Aureobasidium pullulans it was no less than 100 µM; in the assay on Saccharomyces cerevisiae, no less than 100 µM. Further, the MIC in assay [4], in assay [5], in [6], in assay [7], in assay [8] and in [9] was no less than 100 µM in each case. Moreover, in [10], the MIC is no less than 100 µM.
On to `CC(C)C[C@H](NC(=O)[C@H](CCCN=C(N)N)NC(=O)[C@@H](NC(=O)[C@H](CCCN=C(N)N)NC(=O)[C@@H](N)CC(C)C)C(C)C)C(=O)N[C@@H](C)C(=O)N[C@@H](CO)C(=O)N[C@@H](Cc1cnc[nH]1)C(=O)N[C@@H](CC(C)C)C(=O)N[C@@H](CCCN=C(N)N)C(=O)N[C@@H](CCCCN)C(=O)N[C@@H](CC(C)C)C(=O)N[C@@H](CCCN=C(N)N)C(=O)N[C@@H](CCCCN)C(=O)N[C@@H](CCCN=C(N)N)C(=O)N[C@@H](CC(C)C)C(=O)N[C@@H](CC(C)C)C(=O)N[C@@H](CCCN=C(N)N)C(=O)O` [LRVRLASHLRKLRKRLLR], for which the MIC in [11] came out at 3.12 µM (≈ 7.13 µg/mL); in assay [2], 6.25 µM (≈ 14.3 µg/mL); in assay [12] it was 12.5 µM (≈ 28.6 µg/mL); in assay [13] it was 25 µM (≈ 57.1 µg/mL); in assay [14] it was 6.25 µM (≈ 14.3 µg/mL); against Bacillus subtilis PY79 it was 25 µM (≈ 57.1 µg/mL). Besides, the MIC in assay [15] was no less than 50 µM.
For `CC[C@H](C)[C@H](N)C(=O)N[C@@H](Cc1ccccc1)C(=O)NCC(=O)N[C@@H](C)C(=O)N[C@H](C(=O)N[C@@H](Cc1c[nH]c2ccccc12)C(=O)N[C@@H](CO)C(=O)NCC(=O)N[C@H](C(=O)N[C@@H](CCCCN)C(=O)N[C@@H](CO)C(=O)N[C@@H](CC(C)C)C(=O)N[C@@H](Cc1ccccc1)C(N)=O)[C@@H](C)CC)[C@@H](C)CC` [IFGAIWSGIKSLF], the MIC stood at 8 µM (≈ 11.5 µg/mL) in the assay with Escherichia coli D31; 4 µM (≈ 5.75 µg/mL) in assay [16]; 8 µM (≈ 11.5 µg/mL) in the assay on Listeria grayi DSM 20601; 4 µM (≈ 5.75 µg/mL) in assay [17]; 4 µM (≈ 5.75 µg/mL) in assay [18].
As for `CC[C@H](C)[C@H](NC(=O)[C@@H](NC(=O)[C@@H]1CCCN1C(=O)[C@@H](N)C(C)C)[C@@H](C)CC)C(=O)N[C@@H](Cc1ccc(O)cc1)C(=O)N[C@H]1CSSC[C@@H](C(=O)N[C@@H](CCC(N)=O)C(=O)N[C@@H](CCCN=C(N)N)C(=O)N[C@@H](CCSC)C(=O)O)NC(=O)[C@H](CCCCN)NC(=O)CNC(=O)[C@H]([C@@H](C)O)NC(=O)[C@H](CCCN=C(N)N)NC(=O)[C@H](CCCN=C(N)N)NC(=O)[C@H](CC(N)=O)NC1=O` [VPIIYCNRRTGKCQRM], the MIC against Escherichia coli D22 worked out at 0.849 µM (≈ 1.64 µg/mL); against Pediococcus acidilactici it was 28.3 µM (≈ 54.8 µg/mL); in the assay on Klebsiella pneumoniae it was 3.54 µM (≈ 6.85 µg/mL); in the assay on Aerococcus viridans, 1.73 µM (≈ 3.35 µg/mL); in the assay on Fusarium haematococcum, 7.07 µM (≈ 13.7 µg/mL); in the assay with Enterobacter cloacae, 7.07 µM (≈ 13.7 µg/mL). Besides, the MIC with Alternaria brassicicola was found to be 7.07 µM (≈ 13.7 µg/mL); in the assay on Escherichia coli D31 it was 0.849 µM (≈ 1.64 µg/mL); with Bacillus subtilis, 28.3 µM (≈ 54.8 µg/mL); in [19], 28.3 µM (≈ 54.8 µg/mL); against Fusarium culmorum, 14.1 µM (≈ 27.4 µg/mL); against Micrococcus luteus, 3.54 µM (≈ 6.85 µg/mL). Also, the MIC against Botrytis cinerea came out at 14.1 µM (≈ 27.4 µg/mL); against Trichoderma viride, 28.3 µM (≈ 54.8 µg/mL); against Neurospora crassa it was 14.1 µM (≈ 27.4 µg/mL); against Ascochyta pisi it was 28.3 µM (≈ 54.8 µg/mL); in the assay on Bacillus megaterium, 7.07 µM (≈ 13.7 µg/mL).
With `CC[C@H](C)[C@H](N)C(=O)N[C@@H](CCCN=C(N)N)C(=O)N[C@@H](CCCCN)C(=O)N[C@@H](CC(C)C)C(=O)N[C@@H](CCCCN)C(=O)N[C@@H](CO)C(=O)N[C@@H](Cc1c[nH]c2ccccc12)C(=O)N[C@@H](CCCCN)C(=O)N[C@@H](Cc1c[nH]c2ccccc12)C(=O)N[C@@H](CC(C)C)C(=O)N[C@@H](CCCN=C(N)N)C(=O)N[C@@H](Cc1c[nH]c2ccccc12)C(=O)N[C@@H](CC(C)C)C(=O)O` [IRKLKSWKWLRWL], the MIC is no less than 32 µM with Streptococcus agalactiae; 136 µM (≈ 247 µg/mL) with Klebsiella pneumoniae; 16 µM (≈ 29 µg/mL) in assay [20]; 16 µM (≈ 29 µg/mL) in assay [2]; 68 µM (≈ 123 µg/mL) in assay [3]; 4 µM (≈ 7.25 µg/mL) against Streptococcus pyogenes. For the same compound, the MIC is no less than 68 µM in [21], no less than 32 µM in assay [22], 8 µM (≈ 14.5 µg/mL) with Streptococcus mutans and 32 µM (≈ 58 µg/mL) in assay [23].
In the case of `CC[C@H](C)[C@H](N)C(=O)N[C@@H](CCCCN)C(=O)N[C@@H](CCCCN)C(=O)N[C@H](C(=O)N[C@@H](Cc1c[nH]c2ccccc12)C(=O)N[C@@H](CO)C(=O)N[C@@H](CCCCN)C(=O)N[C@H](C(=O)N[C@@H](CCCCN)C(=O)N[C@@H](CCCCN)C(=O)N[C@@H](CC(C)C)C(=O)N[C@@H](CC(C)C)C(=O)N[C@@H](CCCCN)C(N)=O)[C@@H](C)CC)[C@@H](C)CC` [IKKIWSKIKKLLK], the MIC in [24] came to 12.5 µM (≈ 20.3 µg/mL); in [25], 6.25 µM (≈ 10.2 µg/mL).
